# Test results taken from US9376442B2, “Methylpyrrolopyrimidinecarboxamides” (Takeda GmbH, priority 2009, dated 2016).
# Target: T1, PDE5A1 (Homo sapiens, UniProt O76074)
# T1 construct: from tissue; host or cells: human platelets from fresh donor blood (10,000 x g supernatant of sonicated lysate)
# Assay: Inhibition of type 5 phosphodiesterase (PDE5) activity, modified SPA test with human platelet lysate
# Assay type: biochemical
# Conditions: 0.5 μM cGMP, read-out: PDE5A1 inhibitory values [measured as −log IC50 (mol/l)] (converted)
# Method: Method for Measuring Inhibition of the Type 5 Phosphodiesterase (PDE5) Activity:
# As a source for human PDE5, platelets are used. For that purpose, 150 ml fresh blood from human donors anticoagulated with citrate [final concentration 0.3% (w/v)] is centrifuged at 200 g for 10 min to obtain the so-called platelet-rich-plasma (PRP) as a supernatant. 1/10 volume of ACD solution (85 mM Na3-citrate, 111 mM D-glucose, 71 mM citric acid, pH 4.4) is added to 9/10 volume of PRP. After centrifugation (1,400 g, 10 min) the cell pellet is resuspended in 3 ml homogenization buffer (NaCl 140 mM, KCl 3.8 mM, EGTA (ethylene glycol tetraacetic acid) 1 mM, MgCl2 1 mM, Tris-HCl 20 mM, beta-mercaptoethanol 1 mM, pH 8.2) plus protease-inhibitor mix giving rise to the final concentrations of 0.5 mM Pefablock (Roche), 10 μM Leupeptin, 5 μM Trypsininhibitor, 2 mM Benzamidin and 10 μM Pepstatin A. The suspension is sonified and thereafter centrifuged for 15 min at 10,000 g. The resulting supernatant (platelet lysate) is used for enzymatic testings.
# PDE5A1 activity is inhibited by the compounds of the present subject matter in a modified SPA (scintillation proximity assay) test, supplied by Amersham Biosciences (see procedural instructions “phosphodiesterase [3H]cAMP SPA enzyme assay, code TRKQ 7090”), carried out in 96-well microtitre plates (MTP's). The test volume is 100 μl and contains 20 mM Tris buffer (pH 7.4), 0.1 mg of BSA (bovine serum albumin)/ml, 5 mM Mg^2+, 1 μM motapizone, 10 nM PDE2 inhibitor 2-(3,4-dimethoxybenzyl)-7-[(1R,2R)-2-hydroxy-1-(2-phenylethyl)propyl]-5-methylimidazo[5,1-f][1,2,4]triazin-4(3H)-one, 0.5 μM cGMP (cyclic guanosine monophosphate) (including about 50,000 cpm of [3H]cGMP as a tracer), 1 μl of the respective compound dilution in dimethylsulfoxide (DMSO) and sufficient PDE5-containing platelet lysat (10,000×g supernatant, see above) to ensure that 10-20 wt % of the cGMP is converted under the said experimental conditions. […] After a preincubation of 5 min at 37° C., the reaction is started by adding the substrate (cGMP) and the assay is incubated for a further 15 min; after that, it is stopped by adding SPA beads (50 μl). In accordance with the manufacturer's instructions, the SPA beads had previously been resuspended in water, but are then diluted 1:3 (v/v) in water; the diluted solution also contains 3 mM […] (IBMX) to ensure a complete PDE activity stop. After the beads have been sedimented (>30 min), the MTP's are analyzed in commercially available luminescence detection devices. The corresponding IC50 values of the compounds for the inhibition of PDE activity are determined from the concentration-effect curves by means of non-linear regression.
row,Structure (SMILES),IC50
1,"CCC(=O)N1CCC(NC(=O)c2c(C)[nH]c3c(-c4cc(F)c(OC)cc4OCC4CC4)ncnc23)CC1 [Example E132, 4-[2-(Cyclopropylmethoxy)-5-fluoro-4-methoxyphenyl]-6-methyl-N-(1-propionylpiperidin-4-yl)-5H-pyrrolo[3,2-d]pyrimidine-7-carboxamide]",< 1 nM
2,"CCOC(=O)N1CCC(NC(=O)c2c(C)[nH]c3c(-c4c(OCC5CC5)ccc5c4OCO5)ncnc23)CC1 [Example E4, Ethyl 4-[({4-[5-(cyclopropylmethoxy)-1,3-benzodioxol-4-yl]-6-methyl-5H-pyrrolo[3,2-d]pyrimidin-7-yl}carbonyl)amino]piperidine-1-carboxylate]",< 1 nM
3,"COCC(=O)N[C@H]1CC[C@@H](NC(=O)c2c(C)[nH]c3c(-c4ccc(F)cc4OCC4CC4)ncnc23)CC1 [Example E27, 4-[2-(Cyclopropylmethoxy)-4-fluorophenyl]-N-{cis-4-[(methoxyacetyl)amino]cyclohexyl}-6-methyl-5H-pyrrolo[3,2-d]pyrimidine-7-carboxamide]",< 1 nM
4,"CCC(=O)N1CC[C@@H](NC(=O)c2c(C)[nH]c3c(-c4cc(F)c(OC)cc4OCC4CC4)ncnc23)C1 [Example E187, 4-[2-(Cyclopropylmethoxy)-5-fluoro-4-methoxyphenyl]-6-methyl-N-[(3R)-1-propionylpyrrolidin-3-yl]-5H-pyrrolo[3,2-d]pyrimidine-7-carboxamide]",< 1 nM
5,"COc1cc(-c2nc(C)nc3c(C(=O)NC4CCN(C(=O)CO)CC4)c(C)[nH]c23)c(OCC2CC2)cc1F [Example F109, 4-[2-(Cyclopropylmethoxy)-4-fluoro-5-methoxyphenyl]-N-[1-(hydroxyacetyl)piperidin-4-yl]-2,6-dimethyl-5H-pyrrolo[3,2-d]pyrimidine-7-carboxamide]",< 1 nM
6,"COc1ccc(-c2ncnc3c(C(=O)N[C@H]4CC[C@@H](NC(C)=O)CC4)c(C)[nH]c23)c(OCC2CC2)c1 [Example E59, N-(cis-4-acetamidocyclohexyl)-4-[2-(cyclopropylmethoxy)-4-methoxyphenyl]-6-methyl-5H-pyrrolo[3,2-d]pyrimidine-7-carboxamide]",< 1 nM
7,"COc1ccc(OCC2CC2)c(-c2ncnc3c(C(=O)NC4CCN(C(=O)C(C)O)CC4O)c(C)[nH]c23)c1 (mixture of isomers) [Example F50, Diastereomeric mixture of 4-[2-(Cyclopropylmethoxy)-5-methoxyphenyl]-N{(3R,4R)-3-hydroxy-1-[(2S)-2-hydroxypropanoyl]piperidin-4-yl}-6-methyl-5H-pyrrolo[3,2-d]pyrimidine-7-carboxamide and 4-[2-(Cyclopropylmethoxy)-5-methoxyphenyl]-N-{(3S,4S)-3-hydroxy-1-[(2S)-2-hydroxypropanoyl]piperidin-4-yl}-6-methyl-5H-pyrrolo[3,2-d]pyrimidine-7-carboxamide]",< 1 nM
8,"CCC(=O)N[C@H]1CC[C@H](NC(=O)c2c(C)[nH]c3c(-c4cc(C(C)=O)ccc4OCC4CC4)ncnc23)CC1 [Example E167, 4-[5-Acetyl-2-(cyclopropylmethoxy)phenyl]-6-methyl-N-[trans-4-(propanoylamino)cyclohexyl]-5H-pyrrolo[3,2-d]pyrimidine-7-carboxamide]",< 1 nM
9,"Cc1[nH]c2c(-c3ccc(F)cc3OCC3CC3)ncnc2c1C(=O)N[C@H]1CC[C@H](NC(=O)[C@H](C)O)CC1 [Example F14, 4-[2-(Cyclopropylmethoxy)-4-fluorophenyl]-N-(trans-4-{[(2S)-2-hydroxypropanoyl]amino}cyclohexyl)-6-methyl-5H-pyrrolo[3,2-d]pyrimidine-7-carboxamide]",< 1 nM
10,"Cc1[nH]c2c(-c3cc(F)ccc3OCC3CC3)ncnc2c1C(=O)N[C@@H]1CCN(C(=O)CO)C[C@H]1O (relative stereo) [Example F30, 4-[2-(Cyclopropylmethoxy)-5-fluorophenyl]-N-[(3R*,4R*)-3-hydroxy-1-(hydroxyacetyl)piperidin-4-yl]-6-methyl-5H-pyrrolo[3,2-d]pyrimidine-7-carboxamide]",1 to 10 nM
11,"COCC(=O)N1CCC(NC(=O)c2c(C)[nH]c3c(-c4ccc(F)cc4OCC4CC4)ncnc23)CC1 [Example E21, 4-[2-(Cyclopropylmethoxy)-4-fluorophenyl]-N-[1-(methoxyacetyl)piperidin-4-yl]-6-methyl-5H-pyrrolo[3,2-d]pyrimidine-7-carboxamide]",< 1 nM
12,"COc1cc(-c2nc(C)nc3c(C(=O)NC4CCN(C(C)=O)CC4)c(C)[nH]c23)c(OCC2CC2)cc1F [Example E173, N-(1-Acetylpiperidin-4-yl)-4-[2-(cyclopropylmethoxy)-4-fluoro-5-methoxyphenyl]-2,6-dimethyl-5H-pyrrolo[3,2-d]pyrimidine-7-carboxamide]",< 1 nM
13,"COCC(=O)N[C@H]1CC[C@H](NC(=O)c2c(C)[nH]c3c(-c4cc(OC)c(F)cc4OCC4CC4)ncnc23)CC1 [Example E108, 4-[2-(Cyclopropylmethoxy)-4-fluoro-5-methoxyphenyl]-N-{trans-4-[(methoxyacetyl)amino]cyclohexyl}-6-methyl-5H-pyrrolo[3,2-d]pyrimidine-7-carboxamide]",< 1 nM
14,"CCOc1ccc(C(F)(F)F)cc1-c1ncnc2c(C(=O)NC3CCN(C(=O)[C@H](C)O)CC3)c(C)[nH]c12 [Example F64, 4-[2-Ethoxy-5-(trifluoromethyl)phenyl]-N-{1-[(2S)-2-hydroxypropanoyl]piperidin-4-yl}-6-methyl-5H-pyrrolo[3,2-d]pyrimidine-7-carboxamide]",< 1 nM
15,"CCOC(=O)N1CCC(NC(=O)c2c(C)[nH]c3c(-c4cc(OC)c(F)cc4OCC4CC4)ncnc23)CC1 [Example E105, Ethyl 4-[({4-[2-(cyclopropylmethoxy)-4-fluoro-5-methoxyphenyl]-6-methyl-5H-pyrrolo[3,2-d]pyrimidin-7-yl}carbonyl)amino]piperidine-1-carboxylate]",< 1 nM
16,"COc1cc(-c2ncnc3c(C(=O)N[C@@H]4CCN(C(C)=O)C[C@H]4O)c(C)[nH]c23)c(OCC2CC2)cc1F (relative stereo) [Example E113, N-[(3R*,4R*)-1-Acetyl-3-hydroxypiperidin-4-yl]-4-[2-(cyclopropylmethoxy)-4-fluoro-5-methoxyphenyl]-6-methyl-5H-pyrrolo[3,2-d]pyrimidine-7-carboxamide]",< 1 nM
17,"Cc1[nH]c2c(-c3ccc(F)cc3OCC3CC3)ncnc2c1C(=O)N[C@H]1CC[C@H](NC(=O)CO)CC1 [Example F13, 4-[2-(Cyclopropylmethoxy)-4-fluorophenyl]-N-[trans-4-(glycoloylamino)cyclohexyl]-6-methyl-5H-pyrrolo[3,2-d]pyrimidine-7-carboxamide]",< 1 nM
18,"Cc1[nH]c2c(-c3c(OCC4CC4)ccc4c3OCO4)ncnc2c1C(=O)N[C@@H]1CCN(C(=O)CO)C1 [Example F7, 4-[5-(Cyclopropylmethoxy)-1,3-benzodioxol-4-yl]-N-[(3R)-1-glycoloylpyrrolidin-3-yl]-6-methyl-5H-pyrrolo[3,2-d]pyrimidine-7-carboxamide]",< 1 nM
19,"COc1cc(-c2ncnc3c(C(=O)N[C@H]4CC[C@H](NC(=O)[C@H](C)O)CC4)c(C)[nH]c23)c(OCC2CC2)cc1F [Example F68, 4-[2-(Cyclopropylmethoxy)-4-fluoro-5-methoxyphenyl]-N-(trans-4-{[(2S)-2-hydroxypropanoyl]amino}cyclohexyl)-6-methyl-5H-pyrrolo[3,2-d]pyrimidine-7-carboxamide]",< 1 nM
20,"COCC(=O)N[C@H]1CC[C@@H](NC(=O)c2c(C)[nH]c3c(-c4c(OCC5CC5)ccc5c4OCO5)ncnc23)CC1 [Example E11, 4-[5-(Cyclopropylmethoxy)-1,3-benzodioxol-4-yl]-N-{cis-4-[(methoxyacetyl)amino]cyclohexyl}-6-methyl-5H-pyrrolo[3,2-d]pyrimidine-7-carboxamide]",< 1 nM
21,"CC(=O)c1ccc(OCC2CC2)c(-c2ncnc3c(C(=O)N[C@H]4CC[C@H](NC(=O)CO)CC4)c(C)[nH]c23)c1 [Example F104, 4-[5-Acetyl-2-(cyclopropylmethoxy)phenyl]-N-{trans-4-[(hydroxyacetyl)amino]cyclohexyl}-6-methyl-5H-pyrrolo[3,2-d]pyrimidine-7-carboxamide]",< 1 nM
